# Experiments:
# Experiment in all cases: relative viability (nuclei count vs DMSO), 5 days (fraction); higher = more cells survive
# HARA = system: HARA
# Summary of the method: (§1)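 After 5 days of treatment, lung cancer cells in 1536-well plates were fixed and stained in a single step (final 0.05% Triton X-100, 1% formaldehyde, 1 ug/ml Hoechst) and their nuclei counted on 4× images. Treatment had been applied by pin tool the day after seeding as one drug alone or as a fixed anchor-drug dose with five library-drug doses (not always all listed) in √10 steps. Relative viability is the nuclei count of treated wells divided by that of vehicle wells, and values are medians of duplicate plates.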
# NCI-H596 = system: NCI-H596
# Summary of the method: as §1
# COR-L 105 = system: COR-L 105
# Summary of the method: as §1
# HCC-366 = system: HCC-366
# Summary of the method: as §1
# HOP-62 = system: HOP-62
# Summary of the method: as §1
# NCI-H1915 = system: NCI-H1915
# Summary of the method: as §1
# NCI-H1650 = system: NCI-H1650
# Summary of the method: as §1
# LU99A = system: LU99A
# Summary of the method: as §1
# LOU-NH91 = system: LOU-NH91
# Summary of the method: as §1
# LC-2-ad = system: LC-2-ad
# Summary of the method: as §1
# HCC-827 = system: HCC-827
# Summary of the method: as §1
# HCC-15 = system: HCC-15
# Summary of the method: as §1
# NCI-H1395 = system: NCI-H1395
# Summary of the method: as §1
# CAL-12T = system: CAL-12T
# Summary of the method: as §1
# NCI-H650 = system: NCI-H650
# Summary of the method: as §1
# ABC-1 = system: ABC-1
# Summary of the method: as §1
# NCI-H1944 = system: NCI-H1944
# Summary of the method: as §1
# LCLC-97TM1 = system: LCLC-97TM1
# Summary of the method: as §1
# NCI-H2023 = system: NCI-H2023
# Summary of the method: as §1
# ChaGo-K-1 = system: ChaGo-K-1
# Summary of the method: as §1
# NCI-H2009 = system: NCI-H2009
# Summary of the method: as §1
# HCC-44 = system: HCC-44
# Summary of the method: as §1
# BEN = system: BEN
# Summary of the method: as §1
# NCI-H522 = system: NCI-H522
# Summary of the method: as §1
# NCI-H661 = system: NCI-H661
# Summary of the method: as §1
structure (smiles),measurement,setting,value
Nc1cccc2c1CN(C1CCC(=O)NC1=O)C2=O (configuration not stated) [Lenalidomide] + O=C(c1cc(Cc2n[nH]c(=O)c3ccccc23)ccc1F)N1CCN(C(=O)C2CC2)CC1 [Olaparib] (partner 8 µM),relative viability,HARA; first compound 0.253 µM,0.925
same,relative viability,HARA; first compound 2.53 µM,0.804
same,relative viability,HARA; first compound 8 µM,1.01
same,relative viability,NCI-H596; first compound 0.253 µM,0.758
same,relative viability,NCI-H596; first compound 0.8 µM,0.705
same,relative viability,NCI-H596; first compound 2.53 µM,0.77
same,relative viability,NCI-H596; first compound 8 µM,0.77
same,relative viability,COR-L 105; first compound 0.253 µM,0.737
same,relative viability,COR-L 105; first compound 0.8 µM,0.712
same,relative viability,COR-L 105; first compound 2.53 µM,0.748
same,relative viability,COR-L 105; first compound 8 µM,0.774
same,relative viability,HCC-366; first compound 0.253 µM,0.328
same,relative viability,HCC-366; first compound 0.8 µM,0.309
same,relative viability,HCC-366; first compound 2.53 µM,0.373
same,relative viability,HCC-366; first compound 8 µM,0.394
same,relative viability,HOP-62; first compound 0.253 µM,0.38
same,relative viability,HOP-62; first compound 0.8 µM,0.366
same,relative viability,HOP-62; first compound 2.53 µM,0.537
same,relative viability,HOP-62; first compound 8 µM,0.406
same,relative viability,NCI-H1915; first compound 0.253 µM,0.265
same,relative viability,NCI-H1915; first compound 0.8 µM,0.263
same,relative viability,NCI-H1915; first compound 2.53 µM,0.284
same,relative viability,NCI-H1915; first compound 8 µM,0.272
same,relative viability,NCI-H1650; first compound 0.253 µM,0.681
same,relative viability,NCI-H1650; first compound 0.8 µM,0.712
same,relative viability,NCI-H1650; first compound 2.53 µM,0.945
same,relative viability,NCI-H1650; first compound 8 µM,0.933
same,relative viability,LU99A; first compound 0.253 µM,0.261
same,relative viability,LU99A; first compound 0.8 µM,0.283
same,relative viability,LU99A; first compound 2.53 µM,0.243
same,relative viability,LU99A; first compound 8 µM,0.246
same,relative viability,LOU-NH91; first compound 0.253 µM,0.934
same,relative viability,LOU-NH91; first compound 0.8 µM,0.948
same,relative viability,LOU-NH91; first compound 2.53 µM,0.906
same,relative viability,LOU-NH91; first compound 8 µM,0.898
same,relative viability,LC-2-ad; first compound 0.253 µM,0.359
same,relative viability,LC-2-ad; first compound 0.8 µM,0.716
same,relative viability,LC-2-ad; first compound 2.53 µM,0.777
same,relative viability,LC-2-ad; first compound 8 µM,0.782
same,relative viability,HCC-827; first compound 0.253 µM,0.633
same,relative viability,HCC-827; first compound 0.8 µM,0.57
same,relative viability,HCC-827; first compound 2.53 µM,0.668
same,relative viability,HCC-827; first compound 8 µM,0.612
same,relative viability,HCC-15; first compound 0.253 µM,0.686
same,relative viability,HCC-15; first compound 0.8 µM,0.728
same,relative viability,HCC-15; first compound 2.53 µM,0.819
same,relative viability,HCC-15; first compound 8 µM,0.706
same,relative viability,NCI-H1395; first compound 0.253 µM,0.453
same,relative viability,NCI-H1395; first compound 2.53 µM,0.523
same,relative viability,NCI-H1395; first compound 8 µM,0.458
same,relative viability,CAL-12T; first compound 0.253 µM,0.807
same,relative viability,CAL-12T; first compound 0.8 µM,0.729
same,relative viability,CAL-12T; first compound 2.53 µM,0.757
same,relative viability,CAL-12T; first compound 8 µM,0.941
same,relative viability,NCI-H650; first compound 0.253 µM,0.384
same,relative viability,NCI-H650; first compound 0.8 µM,0.294
same,relative viability,NCI-H650; first compound 2.53 µM,0.544
same,relative viability,NCI-H650; first compound 8 µM,0.369
same,relative viability,ABC-1; first compound 0.253 µM,0.654
same,relative viability,ABC-1; first compound 0.8 µM,0.764
same,relative viability,ABC-1; first compound 2.53 µM,0.861
same,relative viability,ABC-1; first compound 8 µM,1.03
same,relative viability,NCI-H1944; first compound 0.253 µM,0.43
same,relative viability,NCI-H1944; first compound 2.53 µM,0.443
same,relative viability,NCI-H1944; first compound 8 µM,0.415
same,relative viability,LCLC-97TM1; first compound 0.253 µM,0.403
same,relative viability,LCLC-97TM1; first compound 0.8 µM,0.38
same,relative viability,LCLC-97TM1; first compound 2.53 µM,0.433
same,relative viability,LCLC-97TM1; first compound 8 µM,0.36
same,relative viability,NCI-H2023; first compound 0.253 µM,0.46
same,relative viability,NCI-H2023; first compound 0.8 µM,0.469
same,relative viability,NCI-H2023; first compound 2.53 µM,0.492
same,relative viability,NCI-H2023; first compound 8 µM,0.453
same,relative viability,ChaGo-K-1; first compound 0.253 µM,0.387
same,relative viability,ChaGo-K-1; first compound 0.8 µM,0.407
same,relative viability,ChaGo-K-1; first compound 2.53 µM,0.421
same,relative viability,ChaGo-K-1; first compound 8 µM,0.478
same,relative viability,NCI-H2009; first compound 0.253 µM,0.623
same,relative viability,NCI-H2009; first compound 0.8 µM,0.654
same,relative viability,NCI-H2009; first compound 2.53 µM,0.827
same,relative viability,NCI-H2009; first compound 8 µM,0.693
same,relative viability,HCC-44; first compound 0.253 µM,0.981
same,relative viability,HCC-44; first compound 0.8 µM,0.873
same,relative viability,HCC-44; first compound 2.53 µM,1.02
same,relative viability,HCC-44; first compound 8 µM,1.05
same,relative viability,BEN; first compound 0.253 µM,1.07
same,relative viability,BEN; first compound 0.8 µM,1.2
same,relative viability,BEN; first compound 2.53 µM,1.08
same,relative viability,BEN; first compound 8 µM,1.08
same,relative viability,NCI-H522; first compound 0.253 µM,0.676
same,relative viability,NCI-H522; first compound 0.8 µM,0.672
same,relative viability,NCI-H522; first compound 2.53 µM,0.58
same,relative viability,NCI-H522; first compound 8 µM,0.608
same,relative viability,NCI-H661; first compound 0.253 µM,0.725
same,relative viability,NCI-H661; first compound 0.8 µM,0.756
same,relative viability,NCI-H661; first compound 2.53 µM,0.735
same,relative viability,NCI-H661; first compound 8 µM,0.704
